Reference: ChEMBL document CHEMBL6096658, “Discovery of Potent, Highly Selective, and Efficacious SMARCA2 Degraders” (J Med Chem, 2025)
The source made the active and inactive calls. The rule behind the calls is not given here.

Experiments:
[1] = Selectivity ratio of DC50 for PROTAC activity at VHL/SMARCA4 in human HT-1080 cells (unknown origin) to DC50 for VHL/SMARCA2 in human HT-1080 cells (unknown origin); format: cell-based
[2] = biological target: T1, von Hippel-Lindau disease tumor suppressor/SWI/SNF-related matrix-associated actin-dependent regulator of chromatin subfamily A member 2 (Homo sapiens, UniProt P51531+P40337); test: In vivo PROTAC activity at VHL/ SMARCA2 in female BALB/c mouse xenografted with human HT-1080 cells assessed as reduction in SMARCA2 level in tumor at 10 mg/kg, iv measured after 24 hrs relative to control; format: functional, organism-based; design: scale not given: the % may be the effect or the level left
Calu-6 [3] = test: Antiproliferative activity against human Calu-6 cells assessed as inhibition of cell proliferation incubated for 6 days by Cell Titer Glo assay; format: functional, cell-based; details: time 6.0 day
Calu-6 [4] = test: Antiproliferative activity against human Calu-6 cells assessed as cell growth inhibition incubated for 6 days by Cell Titer Glo assay; format: functional; details: Calu-6, 144 h, time 6 day
[5] = biological target: T2, von Hippel-Lindau disease tumor suppressor/SWI/SNF-related matrix-associated actin-dependent regulator of chromatin subfamily A member 4 (Homo sapiens, UniProt P51532+P40337); test: PROTAC activity at VHL/SMARCA4 in human HT-1080 cells assessed as induction of SMARCA4 degradation incubated for 24 hrs by Nano-Glo HiBiT Lytic Detection Assay; format: cell-based
Target sequence in this assay (P51532 whole entry): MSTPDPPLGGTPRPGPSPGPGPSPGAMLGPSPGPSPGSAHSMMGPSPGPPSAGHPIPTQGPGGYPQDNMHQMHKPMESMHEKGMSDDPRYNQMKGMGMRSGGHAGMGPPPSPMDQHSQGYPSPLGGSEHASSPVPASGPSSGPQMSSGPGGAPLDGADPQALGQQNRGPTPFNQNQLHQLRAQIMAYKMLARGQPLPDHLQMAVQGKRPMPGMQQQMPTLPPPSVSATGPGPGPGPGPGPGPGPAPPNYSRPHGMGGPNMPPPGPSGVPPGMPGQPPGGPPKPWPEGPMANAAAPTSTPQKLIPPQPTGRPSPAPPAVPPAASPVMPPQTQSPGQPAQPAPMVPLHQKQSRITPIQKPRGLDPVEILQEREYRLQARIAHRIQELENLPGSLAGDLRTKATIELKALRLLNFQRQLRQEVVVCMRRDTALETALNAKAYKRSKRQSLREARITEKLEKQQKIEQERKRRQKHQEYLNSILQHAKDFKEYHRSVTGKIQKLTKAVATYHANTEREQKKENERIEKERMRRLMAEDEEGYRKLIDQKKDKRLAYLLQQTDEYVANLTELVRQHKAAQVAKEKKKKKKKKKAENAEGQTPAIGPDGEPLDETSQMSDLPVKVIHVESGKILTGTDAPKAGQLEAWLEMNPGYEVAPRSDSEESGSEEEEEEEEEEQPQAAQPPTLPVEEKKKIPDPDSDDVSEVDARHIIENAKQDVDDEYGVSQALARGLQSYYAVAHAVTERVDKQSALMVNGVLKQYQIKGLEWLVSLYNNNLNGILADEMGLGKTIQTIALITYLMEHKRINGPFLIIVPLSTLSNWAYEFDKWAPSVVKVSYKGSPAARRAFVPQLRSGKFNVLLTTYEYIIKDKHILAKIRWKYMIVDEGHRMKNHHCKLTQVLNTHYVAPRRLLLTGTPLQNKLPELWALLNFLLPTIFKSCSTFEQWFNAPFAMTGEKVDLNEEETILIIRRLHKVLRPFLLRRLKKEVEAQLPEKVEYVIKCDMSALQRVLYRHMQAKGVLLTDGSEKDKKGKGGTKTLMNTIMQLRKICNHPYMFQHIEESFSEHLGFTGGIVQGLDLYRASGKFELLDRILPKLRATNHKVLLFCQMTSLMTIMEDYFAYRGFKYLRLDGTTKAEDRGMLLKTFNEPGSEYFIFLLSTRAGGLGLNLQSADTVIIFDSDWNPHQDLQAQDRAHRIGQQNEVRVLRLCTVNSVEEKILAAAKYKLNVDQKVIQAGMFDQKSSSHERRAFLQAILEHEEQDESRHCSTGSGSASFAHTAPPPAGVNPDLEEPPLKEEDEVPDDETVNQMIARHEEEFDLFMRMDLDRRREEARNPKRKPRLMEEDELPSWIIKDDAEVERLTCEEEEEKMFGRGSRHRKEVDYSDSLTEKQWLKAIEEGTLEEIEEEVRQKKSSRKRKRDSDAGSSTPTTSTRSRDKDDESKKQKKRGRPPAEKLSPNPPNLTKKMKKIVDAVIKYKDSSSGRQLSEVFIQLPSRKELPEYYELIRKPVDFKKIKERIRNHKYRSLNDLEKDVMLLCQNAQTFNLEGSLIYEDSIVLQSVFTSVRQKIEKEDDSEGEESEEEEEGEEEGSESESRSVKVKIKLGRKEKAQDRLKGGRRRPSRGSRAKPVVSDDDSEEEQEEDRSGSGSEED
Target sequence in this assay (P40337 whole entry): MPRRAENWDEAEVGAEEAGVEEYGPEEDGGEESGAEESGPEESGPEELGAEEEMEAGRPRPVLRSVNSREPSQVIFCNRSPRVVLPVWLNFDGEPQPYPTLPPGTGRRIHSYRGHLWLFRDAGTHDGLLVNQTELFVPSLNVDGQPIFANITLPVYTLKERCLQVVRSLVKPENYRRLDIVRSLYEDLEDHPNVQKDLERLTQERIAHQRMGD

[6] = Metabolic stability in female BALB/c mouse microsomes assessed as half life administered intravenously; format: ADME; details: route iv
[7] = biological target: T1, von Hippel-Lindau disease tumor suppressor/SWI/SNF-related matrix-associated actin-dependent regulator of chromatin subfamily A member 2; test: In vivo PROTAC activity at VHL/ SMARCA2 in female BALB/c mouse xenografted with human HT-1080 cells assessed as reduction in SMARCA2 level in tumor at 1 mg/kg, iv measured after 24 hrs relative to control; format: functional, organism-based; design: scale not given: the % may be the effect or the level left
[8] = biological target: T1, von Hippel-Lindau disease tumor suppressor/SWI/SNF-related matrix-associated actin-dependent regulator of chromatin subfamily A member 2; test: PROTAC activity at VHL/SMARCA2 in human HT-1080 cells assessed as induction of SMARCA2 degradation by measuring maximum efficacy incubated for 6 hrs by Nano-Glo HiBiT Lytic Detection Assay relative to control; format: cell-based
NCI-H838 [9] = test: Antiproliferative activity against human NCI-H838 cells assessed as inhibition of cell proliferation incubated for 6 days by Cell Titer Glo assay; format: functional, cell-based; details: time 6.0 day
NCI-H1573 = test: Antiproliferative activity against human NCI-H1573 cells assessed as inhibition of cell proliferation incubated for 6 days by Cell Titer Glo assay; format: functional, cell-based; details: time 6.0 day
[10] = biological target: T2, von Hippel-Lindau disease tumor suppressor/SWI/SNF-related matrix-associated actin-dependent regulator of chromatin subfamily A member 4; test: In vivo PROTAC activity at VHL/ SMARCA4 in female BALB/c mouse xenografted with human HT-1080 cells at 1 mg/kg, iv measured after 24 hrs relative to control; format: functional, organism-based
NCI-H1373 [11] = test: Antiproliferative activity against human NCI-H1373 cells assessed as inhibition of cell proliferation incubated for 6 days by Cell Titer Glo assay; format: functional, cell-based; details: time 6.0 day
[12] = biological target: von Hippel-Lindau disease tumor suppressor (Homo sapiens, UniProt P40337); test: Binding affinity to VHL (unknown origin) incubated for 30 mins by HTRF assay
Chain of von Hippel-Lindau disease tumor suppressor (P40337 whole entry): as above

[13] = biological target: T2, von Hippel-Lindau disease tumor suppressor/SWI/SNF-related matrix-associated actin-dependent regulator of chromatin subfamily A member 4; test: PROTAC activity at VHL/SMARCA4 in human HT-1080 cells assessed as induction of SMARCA4 degradation by measuring maximum efficacy incubated for 6 hrs by Nano-Glo HiBiT Lytic Detection Assay relative to control; format: cell-based
HT-1080 [14] = test: Antiproliferative activity against human HT-1080 cells assessed as inhibition of cell proliferation incubated for 6 days by Cell Titer Glo assay; format: functional, cell-based; details: time 6.0 day
NCI-H1568 = test: Antiproliferative activity against human NCI-H1568 cells assessed as inhibition of cell proliferation incubated for 6 days by Cell Titer Glo assay; format: functional, cell-based; details: time 6.0 day
[15] = biological target: T2, von Hippel-Lindau disease tumor suppressor/SWI/SNF-related matrix-associated actin-dependent regulator of chromatin subfamily A member 4; test: In vivo PROTAC activity at VHL/ SMARCA4 in female BALB/c mouse xenografted with human HT-1080 cells at 10 mg/kg, iv measured after 24 hrs relative to control; format: functional, organism-based
[16] = biological target: T1, von Hippel-Lindau disease tumor suppressor/SWI/SNF-related matrix-associated actin-dependent regulator of chromatin subfamily A member 2; test: PROTAC activity at VHL/SMARCA2 in human HT-1080 cells assessed as induction of SMARCA2 degradation incubated for 24 hrs by Nano-Glo HiBiT Lytic Detection Assay; format: cell-based
NCI-H838 [17] = test: Antiproliferative activity against human NCI-H838 cells assessed as cell growth inhibition incubated for 6 days by Cell Titer Glo assay; format: functional; details: NCI-H838, 144 h, time 6 day
[18] = biological target: SWI/SNF-related matrix-associated actin-dependent regulator of chromatin subfamily A member 4 (Homo sapiens, UniProt P51532); test: Binding affinity to SMARCA4 (unknown origin) incubated for 30 mins by HTRF assay
Chain of SWI/SNF-related matrix-associated actin-dependent regulator of chromatin subfamily A member 4 (P51532 whole entry): as the sequence (P51532 whole entry) above

[19] = biological target: SWI/SNF-related matrix-associated actin-dependent regulator of chromatin subfamily A member 2 (Homo sapiens, UniProt P51531); test: Binding affinity to SMARCA2 (unknown origin) incubated for 30 mins by HTRF assay
[20] = biological target: T1, von Hippel-Lindau disease tumor suppressor/SWI/SNF-related matrix-associated actin-dependent regulator of chromatin subfamily A member 2; test: Binding affinity to flag-tagged SMARCA2/VHL (unknown origin) assessed as ternary complex formation by measuring HTRF signal incubated for 120 mins by Envision reader analysis; format: protein assay
Calu-6 [21] = test: Antiproliferative activity against wild type human Calu-6 cells assessed as inhibition of cell proliferation incubated for 6 days by Cell Titer Glo assay; format: functional, cell-based; details: time 6.0 day
[22] = biological target: T2, von Hippel-Lindau disease tumor suppressor/SWI/SNF-related matrix-associated actin-dependent regulator of chromatin subfamily A member 4; test: PROTAC activity at VHL/SMARCA4 in human HT-1080 cells assessed as induction of SMARCA4 degradation pretreated with MLN4924 followed by compound addition and measured after 6 hrs by Nano-Glo HiBiT Lytic Detection Assay; format: cell-based
[23] = biological target: T1, von Hippel-Lindau disease tumor suppressor/SWI/SNF-related matrix-associated actin-dependent regulator of chromatin subfamily A member 2; test: PROTAC activity at VHL/SMARCA2 in human HT-1080 cells assessed as induction of SMARCA2 degradation pretreated with MG132 followed by compound addition and measured after 6 hrs by Nano-Glo HiBiT Lytic Detection Assay; format: cell-based
[24] = biological target: T1, von Hippel-Lindau disease tumor suppressor/SWI/SNF-related matrix-associated actin-dependent regulator of chromatin subfamily A member 2; test: PROTAC activity at VHL/SMARCA2 in human HT-1080 cells assessed as induction of SMARCA2 degradation pretreated with MLN4924 followed by compound addition and measured after 6 hrs by Nano-Glo HiBiT Lytic Detection Assay; format: cell-based
HT-1080 [25] = test: Antiproliferative activity against wild type human HT-1080 cells assessed as inhibition of cell proliferation incubated for 6 days by Cell Titer Glo assay; format: functional, cell-based; details: time 6.0 day
[26] = biological target: T1, von Hippel-Lindau disease tumor suppressor/SWI/SNF-related matrix-associated actin-dependent regulator of chromatin subfamily A member 2; test: PROTAC activity at VHL/SMARCA2 in human HT-1080 cells assessed as induction of SMARCA2 degradation measured after 6 hrs by Nano-Glo HiBiT Lytic Detection Assay; format: cell-based; details: dose 0.02-1000 nM
[27] = biological target: T2, von Hippel-Lindau disease tumor suppressor/SWI/SNF-related matrix-associated actin-dependent regulator of chromatin subfamily A member 4; test: In vivo PROTAC activity at VHL/ SMARCA4 in female BALB/c mouse xenografted with human HT-1080 cells assessed as increase in SMARCA4 level administered intravenously and measured after 24 hrs; format: functional, organism-based; details: route iv
[28] = biological target: T2, von Hippel-Lindau disease tumor suppressor/SWI/SNF-related matrix-associated actin-dependent regulator of chromatin subfamily A member 4; test: PROTAC activity at VHL/SMARCA4 in human HT-1080 cells assessed as induction of SMARCA4 degradation pretreated with MG132 followed by compound addition and measured after 6 hrs by Nano-Glo HiBiT Lytic Detection Assay; format: cell-based
[29] = biological target: T1, von Hippel-Lindau disease tumor suppressor/SWI/SNF-related matrix-associated actin-dependent regulator of chromatin subfamily A member 2; test: PROTAC activity at VHL/SMARCA2 in human HT-1080 cells assessed as induction of SMARCA2 degradation at 0.02 to 1000 nM by Nano-Glo HiBiT Lytic Detection Assay; format: cell-based; details: dose 0.02-1000 nM, time 6-24 hrs
NCI-H1373 [30] = test: Antiproliferative activity against wild type human NCI-H1373 cells assessed as inhibition of cell proliferation incubated for 6 days by Cell Titer Glo assay; format: functional, cell-based; details: time 6.0 day

Cc1ncsc1-c1ccc([C@H](C)NC(=O)[C@@H]2C[C@@H](O)CN2C(=O)[C@H](C(C)C)n2cc([C@H]3CC[C@H](CN4CCC(c5ccc6c(c5)C(C)(C)c5nc(=O)c7c(Cl)cccc7n5-6)CC4)CC3)nn2)cc1
Ratio [1]: 4
Activity [2]: > 95%
Activity (Calu-6 [3]): Active
GI50 (Calu-6 [4]): 280 nM
DC50 [5]: 0.85 nM
half-life [6]: 5 h
Activity [7]: 94%
Emax [8]: 98%
Activity (NCI-H838 [9]): Active
Activity (NCI-H1573): Active
Activity [10]: 54%
Activity (NCI-H1373 [11]): Active
IC50 [12]: 2.1 nM
Emax [13]: 97%
Activity (HT-1080 [14]): Active
Activity (NCI-H1568): Active
Activity [15]: 93%
DC50 [16]: 0.22 nM
GI50 (NCI-H838 [17]): 3 nM

Cc1ncsc1-c1ccc([C@H](C)NC(=O)[C@@H]2C[C@@H](O)CN2C(=O)[C@@H](c2cc(OC3CCC(N4CCC(c5ccc6c(c5)C(C)(C)c5nc(=O)c7c(Cl)cccc7n5-6)CC4)CC3)no2)C(C)C)cc1 (some centres not stated)
Ratio [1]: 7.5
IC50 [18]: 43 nM
DC50 [5]: 1.2 nM
Emax [8]: 99%
IC50 [12]: 9.3 nM
Emax [13]: 97%
IC50 [19]: 47 nM
DC50 [16]: 0.16 nM

Cc1ncsc1-c1ccc([C@H](C)NC(=O)[C@@H]2C[C@@H](O)CN2C(=O)[C@@H](c2cc(OCCCN3CCC(c4ccc5c(c4)C(C)(C)c4nc(=O)c6c(Cl)cccc6n4-5)CC3)no2)C(C)C)cc1
Ratio [1]: 18
IC50 [18]: 83 nM
DC50 [5]: 26 nM
Emax [8]: 98%
IC50 [12]: 17 nM
Emax [13]: 92%
IC50 [19]: 60 nM
DC50 [16]: 1.4 nM

Cc1ncsc1-c1ccc([C@H](C)NC(=O)[C@@H]2C[C@@H](O)CN2C(=O)[C@@H](c2cc(OCC3(CN4CCC(c5ccc6c(c5)C(C)(C)c5nc(=O)c7c(Cl)cccc7n5-6)CC4)CC3)no2)C(C)C)cc1
Ratio [1]: 22
IC50 [18]: 100 nM
DC50 [5]: 280 nM
Emax [8]: 87%
IC50 [12]: 15 nM
Emax [13]: 53%
IC50 [19]: 72 nM
DC50 [16]: 13 nM

Cc1ncsc1-c1ccc([C@H](C)NC(=O)[C@@H]2C[C@@H](O)CN2C(=O)[C@@H](c2cc(OCCCCN3CCC(c4ccc5c(c4)C(C)(C)c4nc(=O)c6c(Cl)cccc6n4-5)CC3)no2)C(C)C)cc1
Ratio [1]: 12
IC50 [18]: 97 nM
DC50 [5]: 22 nM
Emax [8]: 98%
IC50 [12]: 16 nM
Emax [13]: 93%
IC50 [19]: 70 nM
DC50 [16]: 1.9 nM

Cc1ncsc1-c1ccc([C@H](C)NC(=O)[C@@H]2C[C@@H](O)CN2C(=O)[C@@H](c2cc(N3CCC(CN4CCC(c5cccc6c5C(C)(C)c5nc(=O)c7c(Cl)cccc7n5-6)CC4)CC3)no2)C(C)C)cc1
Ratio [1]: 8
IC50 [18]: 83 nM
DC50 [5]: 35 nM
Activity [20]: Active; Smarca2-Vhl Shows 30% Higher Auc Compared To Smarca4-Vhl Was Observed
Emax [8]: 94%
IC50 [12]: 15 nM
Emax [13]: 84%
IC50 [19]: 150 nM
DC50 [16]: 4.4 nM

Cc1ncsc1-c1ccc([C@H](C)NC(=O)[C@@H]2C[C@@H](O)CN2C(=O)[C@@H](NC(=O)[C@H]2CC[C@H](CN3CCC(c4ccc5c(c4)-n4c(nc(=O)c6c(Br)cccc64)C5(C)C)CC3)CC2)C(C)(C)C)cc1
Ratio [1]: > 100
GI50 (Calu-6 [4]): > 1000 nM
DC50 [5]: > 1000 nM
Emax [8]: 93%
IC50 [12]: 280 nM
Emax [13]: 34%
DC50 [16]: 6.4 nM
GI50 (NCI-H838 [17]): 40 nM

Cc1ncsc1-c1ccc([C@H](C)NC(=O)[C@@H]2C[C@@H](O)CN2C(=O)[C@@H](n2cc([C@H]3CC[C@H](CN4CCC(c5ccc6c(c5)-n5c(nc(=O)c7c(Cl)cccc75)C6(C)C)CC4)CC3)nn2)C(C)(C)C)cc1
Ratio [1]: 72
Activity (Calu-6 [21]): Active; Less Activity Observed
Activity [22]: inactive
Activity [2]: > 95%
GI50 (Calu-6 [4]): > 1000 nM
DC50 [5]: 94 nM
half-life [6]: 10 h
Activity [7]: 83%
Emax [8]: 97%
Activity (NCI-H838 [9]): Active
Activity (NCI-H1573): Active
Activity [23]: inactive
Activity [24]: inactive
IC50 [12]: 25 nM
Activity (HT-1080 [25]): Active; Less Activity Observed
Activity [26]: Dose-dependent-effect
Emax [13]: 68%
Activity [27]: Active
Activity (NCI-H1568): Active
Activity [28]: inactive
Activity [29]: Time-dependent-effect
Activity (NCI-H1373 [30]): Active; Less Activity Observed
DC50 [16]: 1.3 nM
GI50 (NCI-H838 [17]): 34 nM
